Paper PMC8130708 (Journal of medicinal chemistry, 2021)
Entries after “also recorded” stand apart in the source; their conditions may differ.

Tests used:
PWWP domains = conditions: DSLS
NSD2-PWWP1 [1] = target: T1, NSD2-PWWP1 (Homo sapiens, UniProt O96028); assay type: binding; conditions: for potency on NSD2-PWWP1, SAR statement in words: relative to parent compound 2 or 3, Tables 1 and 2 (images, DSLS/SPR)
T1 sequence (O96028 222-286 limits assumed): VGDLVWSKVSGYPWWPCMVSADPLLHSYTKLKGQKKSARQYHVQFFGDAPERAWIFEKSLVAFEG

NSD2-PWWP1 [2] = target: T2, NSD2-PWWP1 (Homo sapiens, UniProt O96028); assay: Differential static light scattering; assay type: binding; conditions: read-out: increase of melting temperature of N-terminal PWWP domain of NSD2
T2 sequence (O96028 211-350): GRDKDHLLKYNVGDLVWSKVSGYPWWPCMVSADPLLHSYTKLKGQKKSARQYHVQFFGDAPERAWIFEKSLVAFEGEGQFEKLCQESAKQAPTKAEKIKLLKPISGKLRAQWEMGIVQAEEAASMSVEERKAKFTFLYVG

| SMILES | potency on NSD2-PWWP1, SAR statement in words (NSD2-PWWP1 [1]) | other results |
| --- | --- | --- |
| N#Cc1ccc(C(=O)N(Cc2cccs2)C2CC2)cc1 [Compound 3f] | – | binding / effect on melting temperature in a panel of 10 PWWP domains (PWWP domains; compound at 100 μM (Figure 2C)): only bound NSD2-PWWP1; also recorded: only affects the melting temperature of NSD2-PWWP1 |
| COc1ccc(C2CCCN2C(=O)c2ccc(C#N)cc2)cc1 (centres unmarked) [Compound 2b] | no significant effect | – |
| N#Cc1ccc(C(=O)N(Cc2ccc(F)cc2)C2CC2)cc1 [Compound 3] | – | fold more potent than compound 1 (NSD2-PWWP1 [1]; ratio of SPR Kd values): 6; fold more potent than compound 2 (NSD2-PWWP1 [1]; ratio of SPR Kd values): 25 |
| N#Cc1ccc(C(C(N)=O)N2CCC2c2ccc(Cl)cc2)cc1 (centres unmarked) [Compound 1] | – | ΔTm at 400 µM (NSD2-PWWP1 [2]): 4 °C; binding to six other PWWP-containing proteins (PWWP domains; compound at 400 μM (Table S2)): did not bind |
| O=C(c1ccccc1)N1CCCC1c1ccccc1 (centres unmarked) [Compound 2h] | abolished activity | – |
| N#Cc1ccc(C(=O)N2CCCC2c2ccccc2)cc1 (centres unmarked) [Compound 2a] | improved potency | – |
| N#Cc1ccc(C(=O)NCc2ccc(F)cc2)cc1 [Compound 3b] | much weaker or completely inactive | – |
| CN(Cc1ccc(F)cc1)C(=O)c1ccc(C#N)cc1 [Compound 3a] | much weaker or completely inactive | – |
| Cc1ccc(C(=O)N2CCCC2c2ccc(Cl)cc2)cc1 (centres unmarked) [Compound 2i] | abolished activity | – |
